What all share (assay): NCI-60 cell line screen, 48 h
Test [1] concerns UACC-62 melanoma.
For test [2], the system named is SF-268 CNS.
The subject of test [3] is BT-549 breast.
The test system of test [4] is T-47D breast.
The test system of test [5] is 786-0 renal.
Test [6] deals with KM12 colon.
Test [7] has as its system HCT-15 colon.
Test [8] relates to SW-620 colon.
In test [9] the test system is MOLT-4 leukemia.
For test [10], the system named is OVCAR-5 ovarian.

The source of these data is PubChem BioAssay (NCI).

Molecules are shown by their SMILES.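 Dose response: 5 concentrations. Exposure: 48 h. Format: 96-well plates. Endpoint: linear interpolation; highest concentration if not reached. GI50: concentration for 50% inhibition of growth. The concentration for full growth arrest is given as TGI.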 Bounds are passed on as bounds.

Turning to `Oc1cccc2ccc(N/N=C/c3cc(CN4CCCCC4)c(O)c4ncccc34)nc12`, the GI50 in test [1] is 0.0459 µM; in test [2] it was 0.0635 µM; in test [3] it was 0.0574 µM; in [4] it was 0.192 µM; in test [5], 0.0826 µM; in test [6], 0.0449 µM. In addition, the GI50 was 0.0339 µM in test [7], 0.0362 µM in test [8], 0.0597 µM in test [9] and 0.0639 µM in test [10]. Also, the TGI in [1] turned out to be 4.9 µM; in test [2] it was 13.4 µM; in test [3], 6.02 µM; in test [4] it was 14.9 µM; in test [5] it was 1.7 µM; in test [6], 1.85 µM. For the same compound, the TGI amounted to 1.51 µM in test [7], 3.52 µM in [8], 3.82 µM in [9] and 13 µM in test [10].
Regarding `COc1ccc(/C=C(/C#N)C(N)=O)cc1OC`, the TGI in test [1], in test [2], in [3], in [4], in test [5] and in test [6] was more than 100 µM in each case. The TGI in test [7], in test [8], in [9] and in test [10] was more than 100 µM in each case.
For the compound `COc1cc(C2CC(c3ccc4c(c3)OCO4)=NN2C=O)cc(OC)c1OC` (stereo not given), the GI50 was 2.21 µM in test [1]; 6.88 µM in test [2]; 5.21 µM in [3]; 3.34 µM in test [4]; 5.26 µM in test [5]; 1.17 µM in test [6]. In addition, the GI50 in test [7] is 1.58 µM; in [8], 1.21 µM; in [9], 4.34 µM; in test [10], 12.2 µM. In addition, the TGI in [1], in test [2], in test [3], in test [4], in test [5] and in test [6] was more than 100 µM each time. Moreover, the TGI in test [7], in test [8], in test [9] and in test [10] was more than 100 µM each time.
On to `CCOC(=O)c1cc(NS(=O)(=O)c2ccccc2)cc(C(=O)OCC)c1`, for which the GI50 in test [1], in test [2], in test [3], in test [4], in test [5] and in test [6] was more than 100 µM in each case. For the same compound, the GI50 in [7], in [8], in test [9] and in test [10] was more than 100 µM each time. In addition, the TGI in test [1], in [2], in [3], in [4], in [5] and in test [6] was more than 100 µM in each case. The TGI in test [7], in [8], in test [9] and in test [10] was more than 100 µM each time.
On to `O=C(NCCCCCCNC(=O)n1cc(F)c(=O)[nH]c1=O)NCCCOCCOCCOCCOCCOCCOCCOCCOCCOCCOCCOCCOCCOCCOCCOCCOCCOCCOCCOCCOCCOCCCNC(=O)C(O)C(O)C(O)C(O)CO` (stereo not given), for which the TGI in test [1], in test [2], in test [3], in [4], in test [5] and in [6] was more than 100 µM each time. The TGI in test [7], in [8], in test [9] and in [10] was more than 100 µM throughout.
As for `COc1ccc2sc3c(NCCCN(C)C)nc4ccccc4c3c(=O)c2c1`, the GI50 in test [1] was 1.8 µM; in test [2] it was 1.67 µM; in test [3], 5.24 µM; in test [4], 1.86 µM; in [5] it was 1.34 µM; in test [6] it was 1.68 µM. In addition, the GI50 was 1.36 µM in test [7], 1.55 µM in [8], 1.71 µM in test [9] and 1.76 µM in test [10]. Besides, the TGI was 3.24 µM in test [1]; 3.35 µM in [2]; 18.1 µM in test [3]; 4.24 µM in [4]; 2.71 µM in [5]; 3.18 µM in [6]. The TGI worked out at 2.7 µM in [7], 3.04 µM in test [8], 3.56 µM in [9] and 3.23 µM in test [10].
Turning to `O=C(NCCO)Nc1ccc(-c2nc(N3CCOCC3)c3cccn3n2)cc1`, the GI50 is 0.0809 µM in test [1]; 0.164 µM in [2]; 0.0729 µM in [3]; less than 0.0212 µM in [4]; 0.218 µM in [5]; 0.579 µM in test [6]. Also, the GI50 in [7] was 0.359 µM; in test [8], 1.65 µM; in test [9], 0.217 µM; in test [10] it was 0.138 µM. In addition, the TGI in test [1] was 1.84 µM; in test [2], more than 95.9 µM; in test [3] it was 3.6 µM; in test [4], 0.125 µM; in [5], 6.14 µM; in [6], more than 100 µM. In addition, the TGI was more than 100 µM in test [7], more than 100 µM in test [8], more than 49.2 µM in test [9] and 20.7 µM in test [10].
On to `O=C(/C=C/c1ccccc1)c1cc(Br)ccc1O`, for which the TGI amounted to 27.4 µM in [1]; 34 µM in test [2]; 33 µM in test [3]; 25.5 µM in [4]; 28.8 µM in test [5]; 25.7 µM in test [6]. In addition, the TGI was found to be 34.9 µM in [7], 46.8 µM in test [8], 36.3 µM in [9] and 46.3 µM in test [10].
For the compound `CC#C[C@]1(O)CC[C@H]2[C@@H]3CCC4=CC(=O)CCC4=C3[C@@H](c3ccc4c(c3)OCO4)C[C@@]21C`, the GI50 was 50 µM in test [1]; 79.1 µM in test [2]; 22.3 µM in test [3]; 45.6 µM in [4]; 35.8 µM in [5]; 112 µM in test [6]. In addition, the GI50 in test [7] was 45.4 µM; in test [8], 62.3 µM; in test [9], 49.5 µM; in test [10] it was 236 µM. Further, the TGI in test [1] stood at 204 µM; in test [2], 481 µM; in [3], 122 µM; in test [4], 577 µM; in test [5], 324 µM; in [6] it was 299 µM. Further, the TGI in test [7] is 780 µM; in test [8] it was more than 1000 µM; in [9] it was more than 1000 µM; in test [10], more than 1000 µM.
As to `C=CCOc1cccc(/C=C2\SC(=Nc3ccc(O)cc3)NC2=O)c1`, the GI50 in [1] was 0.808 µM; in [2], 1.44 µM; in test [3], 0.529 µM; in [4], 0.495 µM; in [5], 1.13 µM; in test [6] it was 0.433 µM. Moreover, the GI50 in test [7] is 0.358 µM; in test [8], 0.383 µM; in [9] it was 0.523 µM; in [10], 2.32 µM. The TGI was 17.4 µM in test [1]; more than 22.6 µM in test [2]; 3.4 µM in test [3]; more than 100 µM in [4]; 7.89 µM in test [5]; 8.86 µM in [6]. In addition, the TGI in [7] was more than 100 µM; in [8], more than 80.1 µM; in [9], more than 23.8 µM; in test [10] it was 24.9 µM.
`Cc1cc(N(CCCl)CCCl)ccc1C=Nc1ccc(-c2csc(Cc3ccccc3)n2)cc1`: the GI50 was 0.621 µM in test [1]; 7.03 µM in test [2]; 13.4 µM in test [3]; 2.82 µM in [4]; 5.86 µM in test [5]; 15.8 µM in [6]. For the same compound, the GI50 was 15.2 µM in [7], 18.1 µM in test [8], 2.22 µM in test [9] and 8.91 µM in test [10]. Moreover, the TGI in [1] was 16 µM; in test [2] it was more than 85.4 µM; in test [3], 42.4 µM; in test [4], 49.2 µM; in test [5] it was 49.1 µM; in test [6] it was 55.6 µM. In addition, the TGI in [7] was more than 79.9 µM; in test [8], more than 100 µM; in [9] it was 62 µM; in test [10] it was more than 67.1 µM.
Regarding `CCCC(=O)OC1C(C(O)CO)OC2OC(C)(C)OC21` (stereo not given), the TGI in [1], in test [2], in [3], in [4], in [5] and in test [6] was more than 100 µM throughout. Also, the TGI in test [7], in test [8], in test [9] and in test [10] was more than 100 µM in each case.
